Measurements: publication PMC12276035, “Novel Para‐Phenylenediamine‐Based Derivatives as Receptor Tyrosine Kinase‐like Orphan Receptor 1 (ROR1) Inhibitors: An In Vitro Preliminary Characterization” (Chemmedchem, 2025)

What was measured:
[1] = system: JeKo‐1 cells; experiment: Annexin V‐FITC/PI staining apoptosis, flow cytometry; format: cell-based, human; conditions: JeKo‐1, 20 μM, 72 h, early and late apoptosis
From the text: This observation aligns with previous studies reporting that ROR1 is highly expressed in B‐cell malignancies, including mantle cell lymphoma, where it plays a crucial role in survival signaling and resistance to apoptosis.^[ [10], [32] ^] Given the higher susceptibility of JeKo‐1 cells to the inhibitor, we selected this model for further apoptotic analysis. However, for completeness, apoptotic data for the SH‐SY5Y cell line are also provided in the Supporting Information (Figure S39, Supporting Information). Specifically, cells were incubated with compounds 17, 20, or 29 (20 μM) for 72 h and a flow cytometry analysis using Annexin V/PI staining was performed. After treatment, a very strong increase in the apoptotic response was observed, in both early and late apoptotic populations compared to the negative control (Figure 4 ). […] These findings are in accordance with the literature and further support the potential of ROR1 inhibition in promoting cell death in mantle cell lymphoma.^[ [33] ^]
Figure 4 Proapoptotic activity of compounds 17, 20, and 29 (20 μM) on JeKo‐1 cells treated for 72 h. A) Representative flow cytometry plots using Annexin V‐FITC/PI staining for apoptosis. B) Related quantitative analysis is reported. Data are expressed as a percentage of live, apoptotic, and necrotic cells. Results are shown as mean ± standard deviation (SD) from three independent experiments. *** denote p < 0.001 versus Ctrl.
Apoptosis of the cells was assessed using annexin V‐FITC/PI reagents. JeKo‐1 cells (60 × 10^3 cells/well) were seeded into 24‐well plates and incubated for 72 h with compounds (20 and 10 μM). After treatment, the collected cells were resuspended in a 100 μL assay buffer, then 5 Annexin V‐FITC and 1 PI reagents were added following incubation for 20 min at room temperature according to the manufacturer's protocol (Dead Cell Apoptosis Kits with Annexin V for Flow Cytometry, Thermo Fisher Scientific). Cells were analyzed with a Becton Dickinson FACScan flow cytometer using the Cell Quest software, version 4 (Franklin Lakes, NJ, USA).^[ [46] ^]

[2] = Plasma stability assay; format: in vitro ADME; conditions: mouse plasma, 120 min, 37 °C
Method: In addition to hepatic metabolism, drugs are also prone to degradation and modification by plasma enzymes, including hydrolases and esterases. Compounds with low plasma stability often show rapid clearance and a short half‐life. […] In this study, we assessed the metabolic stability of compound 17 by incubating it in mouse plasma for 120 min.
The plasma stability of compound 17 was evaluated. Briefly, mouse plasma is equilibrated to 37 °C and biotransformation is initiated by addition of compound solution and mixing. At each specified time point (0, 60, and 120 min), the test compound was extracted using ice‐cold methanol to halt degradation, with the IS added during the quenching phase. The concentration of the test compound was then quantified using LC‐MS. The percentage of the test compound remaining at each time point, relative to the 0 min reference, was recorded. Procaine (low stability) and procainamide (high stability) served as controls. All experiments were conducted in triplicate.

[3] = Liver microsomal stability; format: in vitro ADME, mouse
Method: To evaluate the metabolic stability of our hit compound and assess its drug‐likeness, we investigated the microsomal stability of 17 by incubating it with mouse liver microsomes. We monitored the loss of the compound over time under CYP‐mediated metabolic pathways (Figure 7A). The natural logarithm of the percentage remaining of the compound, calculated by comparing the concentration at each time point with the t0 sample, was plotted against time, yielding a linear regression (R ^2 = 0.98).
The liver microsomal stability assay of compound 17 was conducted as previously described.^[ [47] ^] Briefly, mouse (CD‐1) liver microsomes (Thermo Fisher Scientific, Bremen, Germany) were used, and the reaction was initiated by the addition of NADPH. The incubation was carried out 37 °C for 15, 30, 45, and 60 min in a Thermomixer comfort (Eppendorf, Hamburg, Germany). The reaction was stopped by the addition of ice‐cold methanol containing IS. Finally, the samples were centrifuged, and the supernatants were injected into the LC‐MS. […] All experiments were performed in triplicate, and results were expressed as the in vitro microsomal half‐life (t 1/2), calculated using the equation t 1/2 = 0.693/b, where b is the slope of the linear regression obtained by plotting the natural logarithm of the remaining parent compound fraction against incubation time.

[4] = molecular target: T1, ROR1 (Homo sapiens, UniProt Q01973); experiment: Cellular Thermal Shift Assay (CETSA); format: cell-based; conditions: JeKo‐1, 40 μM, 2 h, 45–58 °C
T1 construct: endogenous in cells; host or cells: JeKo-1
T1 sequence (Q01973 30-937): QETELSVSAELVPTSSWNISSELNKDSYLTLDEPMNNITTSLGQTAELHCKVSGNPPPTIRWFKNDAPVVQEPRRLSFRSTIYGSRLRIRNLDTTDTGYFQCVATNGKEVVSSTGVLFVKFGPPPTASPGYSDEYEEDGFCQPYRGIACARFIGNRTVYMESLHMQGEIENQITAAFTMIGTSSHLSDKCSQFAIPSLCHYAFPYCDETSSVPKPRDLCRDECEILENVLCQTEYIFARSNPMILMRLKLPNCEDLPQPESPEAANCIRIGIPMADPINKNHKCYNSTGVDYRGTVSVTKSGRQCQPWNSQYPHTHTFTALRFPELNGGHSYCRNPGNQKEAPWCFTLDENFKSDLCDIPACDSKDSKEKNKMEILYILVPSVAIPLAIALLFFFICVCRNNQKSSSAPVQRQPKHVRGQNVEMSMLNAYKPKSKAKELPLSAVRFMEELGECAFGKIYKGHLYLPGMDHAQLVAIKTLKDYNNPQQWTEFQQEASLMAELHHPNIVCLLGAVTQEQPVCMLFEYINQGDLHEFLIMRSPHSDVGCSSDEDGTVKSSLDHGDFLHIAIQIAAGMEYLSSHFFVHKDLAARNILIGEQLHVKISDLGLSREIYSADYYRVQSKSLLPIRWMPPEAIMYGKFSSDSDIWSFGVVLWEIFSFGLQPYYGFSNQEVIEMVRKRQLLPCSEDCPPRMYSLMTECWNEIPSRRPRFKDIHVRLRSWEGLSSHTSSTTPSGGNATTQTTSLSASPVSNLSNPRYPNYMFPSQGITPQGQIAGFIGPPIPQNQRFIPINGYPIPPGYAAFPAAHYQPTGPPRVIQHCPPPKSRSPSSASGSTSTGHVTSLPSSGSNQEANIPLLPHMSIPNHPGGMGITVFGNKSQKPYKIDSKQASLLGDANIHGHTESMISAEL
Method: To further ascertain the binding between 17 and ROR1, we performed CETSA, a cell‐based test allowing us to carry out both qualitative and quantitative analyses of the direct interaction of a drug candidate to a target protein inside a cell.^[ [34] ^] CETSA assay was performed on JeKo‐1 cell line incubated with 17 for 2 h. After the treatment, ROR1 levels were evaluated by western blotting analysis. […] These findings provide strong evidence that the inhibitor effectively engages with ROR1 in cells, further supporting its mechanism of action (Figure 5 ). Ponatinib was used as a positive control (Figure S40, Supporting Information).
Figure 5 CETSA identifies ROR1 protein in the binding with 17 in JeKo‐1 cells. A) CETSA western blots and B) corresponding quantitative analysis of band intensity. […] Densitometry‐based quantification of western blotting signals was calculated by first normalizing to α‐tubulin levels in individual samples. […]
The CETSA is particularly suitable for identifying the interaction between ligands and their protein targets. […] The change in the thermal stability of the target protein is measured by the amount of residual soluble protein at different temperatures, comparing treated samples with control samples.^[ [32] ^] […] The amount of the soluble target protein was assessed by western blotting analysis.

For `O=C(NCc1ccc(-c2ccccc2)cc1)Nc1ccc(NCC2CCNCC2)cc1C(F)(F)F` [Compound 17], the apoptotic cells [1] was 89.02 ± 3.12%, the compound remaining intact [2] was “over 85%” and the degradation ([3]; after 60 min with mouse microsomes) was “≈ 20%”. The half-life ([3]; mouse (CD‐1) liver microsomes, NADPH, 37 °C) was roughly 3.3 h and the ROR1 thermal stabilization [4] was “strong stabilization”.
